Values after ≈ are worked out from the molar mass of the structure shown. *1 amine or outer side, *2 acyl side, *3 side chain or, on linkers, in order; H or OH if unused. Where a SMILES comes first, the peptide text is derived from it. Bridges are numbered along the chain shown (N, C = ends). X1 = CCCCCCCCCCCCCCC[C@H](CC(=O)[*:1])O[*:2]; X2 = CCCCCCCCCCCCCC[C@H](CC(=O)[*:1])O[*:2]; X3 = CCCCCCCCCCCCC[C@H](CC(=O)[*:1])O[*:2]
Assays:
[1] = Antifungal activity against Fusarium oxysporum f. sp. lycopersici 4287 assessed as reduction in mycelium growth at 100 ppm after 72 hrs by spectrophotometric analysis; format: functional; parameters: scale not given: the % may be the effect or the level left
[2] = Antifungal activity against Fusarium oxysporum f. sp. lycopersici 4287 assessed as reduction in mycelium growth at 50 ppm after 72 hrs by spectrophotometric analysis; format: functional; parameters: scale not given: the % may be the effect or the level left
Penicillium digitatum = assay: […] activity against Penicillium digitatum; format: functional, organism-based

| Compound | Activity [1] [%] | Activity [2] [%] | EC50 (Penicillium digitatum) [µg/mL] |
| --- | --- | --- | --- |
| CCCCCCCCCCCCC[C@@H]1CC(=O)N[C@@H](CCC(=O)O)C(=O)N[C@@H](CC(C)C)C(=O)N[C@@H](CC(C)C)C(=O)N[C@@H](C)C(=O)N[C@@H](CC(=O)O)C(=O)N[C@@H](CC(C)C)C(=O)N[C@@H](CC(C)C)C(=O)O1 (ELLADLL; linker N-C via X3) | 29 | – | – |
| CCCCCCCCCCCCCC[C@@H]1CC(=O)N[C@@H](CCC(=O)O)C(=O)N[C@@H](CC(C)C)C(=O)N[C@@H](CC(C)C)C(=O)N[C@@H](C)C(=O)N[C@@H](CC(=O)O)C(=O)N[C@@H](CC(C)C)C(=O)N[C@@H](CC(C)C)C(=O)O1 (ELLADLL; linker N-C via X2) | 11 | – | – |
| CCCCCCCCCCCCCCC[C@@H]1CC(=O)N[C@@H](CCC(=O)O)C(=O)N[C@@H](CC(C)C)C(=O)N[C@@H](CC(C)C)C(=O)N[C@@H](C)C(=O)N[C@@H](CC(=O)O)C(=O)N[C@@H](CC(C)C)C(=O)N[C@@H](CC(C)C)C(=O)O1 (ELLADLL; linker N-C via X1) | 56 | 25 | 88.5 (≈ 84.2 µM) |
